In the experiment the target is Beta-2 adrenergic receptor (Homo sapiens) (UniProt P07550). Put plainly: ADRB2 activation measured by internalization – cell-based, FAP fluorogen, flow cytometry, powder set 5, dose response (AID 651912). The note with it: AM2.2-beta2AR cells, 90 min. On the technique in general: A flow cytometer gives signals particle by particle.
Chain of Beta-2 adrenergic receptor (Homo sapiens) (P07550 whole entry, looked up): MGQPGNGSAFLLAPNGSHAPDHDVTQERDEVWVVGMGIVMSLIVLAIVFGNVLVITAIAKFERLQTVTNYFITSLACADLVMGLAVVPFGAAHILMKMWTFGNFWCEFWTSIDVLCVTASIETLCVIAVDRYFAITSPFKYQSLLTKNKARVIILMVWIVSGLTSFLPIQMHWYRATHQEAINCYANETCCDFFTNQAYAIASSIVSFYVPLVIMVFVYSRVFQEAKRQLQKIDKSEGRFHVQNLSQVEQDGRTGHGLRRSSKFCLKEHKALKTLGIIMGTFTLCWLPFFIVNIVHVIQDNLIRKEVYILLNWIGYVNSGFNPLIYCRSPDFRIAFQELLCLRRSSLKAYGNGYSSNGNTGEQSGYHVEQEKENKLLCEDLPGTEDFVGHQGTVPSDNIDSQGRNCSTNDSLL
The EC50 is the concentration needed to bring the measured effect to its halfway point. Consider `CC1CCCCN1S(=O)(=O)c1ccc(NC(=O)c2cccnc2)cc1` (configuration not stated), for which the EC50 is 134 nM.

For `O=C(C1CCCN1S(=O)(=O)c1ccc(Cl)cc1)N1CCN(c2ccccn2)CC1` (configuration not stated), the EC50 is 219 nM. Turning to `CCC(=O)Nc1ccc(S(=O)(=O)N2CCCCC2CC)cc1` (configuration not stated), the EC50 was 4.8 nM. The value for `Cc1cccc(C(=O)Nc2ccc(S(=O)(=O)N3CCCCC3C)cc2)c1` (configuration not stated) was 4030 nM; that for `CC(=O)Nc1ccc(S(=O)(=O)N2CCCCC2C)cc1` (configuration not stated) was 80.2 nM. The value for `CN(CC(=O)N1CCN(c2ccc(F)cc2)CC1)S(=O)(=O)c1ccc(Br)cc1` was 336 nM; that for `CCC1CCCCN1S(=O)(=O)c1ccc(NC(C)=O)cc1` (configuration not stated) was 132 nM.

The values above are taken from PubChem BioAssay AID651912 (NMMLSC, 2012).
